Reference: article PMC12508949, “Evaluation of the Pharmacokinetic Interactions of Maytenus ilicifolia Mart. ex Reiss Extracts on Drug Intestinal Permeability and Hepatic Metabolism” (ACS Omega, 2025)

How the values were obtained:
CYP3A enzyme = tested on: CYP3A enzyme; set-up: method as in previous studies; details: ref previous studies; cited from earlier work
CYP3A4 [1] = target: CYP3A4 (Homo sapiens, UniProt P08684); experiment: CYP3A4 inhibition in human liver microsomes (midazolam 1-hydroxylation, nifedipine oxidation); details: extracts 2 mg/mL, secondary metabolites 100 μM
CYP3A4 [2] = tested on: CYP3A4; set-up: method as in Kimura et al.; details: ref Kimura et al., cited from earlier work; for inhibition of 6β-hydroxylation of testosterone: concentration of 100 μM; for IC50: read-out: IC50, 6β-hydroxylation of testosterone
P-gp [3] = target: T1, P-gp (Homo sapiens, UniProt P08183); details: Caco-2; epicatechin 100 μM; reduced P app(B–A) and efflux of fexofenadine
P-gp [4] = target: T1, P-gp; set-up: determining P-gp activity, using a Caco-2 cell model; host or cells: Caco-2 cells; method as in Kitagawa et al.; details: KB-C2 cells; ref Kitagawa et al.; cited from earlier work

Sequence of CYP3A4 (Homo sapiens, UniProt P08684) (P08684 whole entry): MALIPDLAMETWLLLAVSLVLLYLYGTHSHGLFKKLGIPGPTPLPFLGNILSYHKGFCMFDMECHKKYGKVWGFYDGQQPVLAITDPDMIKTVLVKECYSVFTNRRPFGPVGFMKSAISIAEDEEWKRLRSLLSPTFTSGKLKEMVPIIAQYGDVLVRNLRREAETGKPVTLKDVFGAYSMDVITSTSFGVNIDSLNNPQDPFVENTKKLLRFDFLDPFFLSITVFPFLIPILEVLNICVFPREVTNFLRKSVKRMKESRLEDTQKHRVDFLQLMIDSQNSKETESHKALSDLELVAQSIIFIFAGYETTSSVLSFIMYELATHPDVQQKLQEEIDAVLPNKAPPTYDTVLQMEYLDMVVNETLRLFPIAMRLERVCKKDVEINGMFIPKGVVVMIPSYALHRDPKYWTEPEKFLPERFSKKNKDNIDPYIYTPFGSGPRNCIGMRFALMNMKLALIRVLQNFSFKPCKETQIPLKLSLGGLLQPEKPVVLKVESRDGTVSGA
T1 sequence (P08183 whole entry): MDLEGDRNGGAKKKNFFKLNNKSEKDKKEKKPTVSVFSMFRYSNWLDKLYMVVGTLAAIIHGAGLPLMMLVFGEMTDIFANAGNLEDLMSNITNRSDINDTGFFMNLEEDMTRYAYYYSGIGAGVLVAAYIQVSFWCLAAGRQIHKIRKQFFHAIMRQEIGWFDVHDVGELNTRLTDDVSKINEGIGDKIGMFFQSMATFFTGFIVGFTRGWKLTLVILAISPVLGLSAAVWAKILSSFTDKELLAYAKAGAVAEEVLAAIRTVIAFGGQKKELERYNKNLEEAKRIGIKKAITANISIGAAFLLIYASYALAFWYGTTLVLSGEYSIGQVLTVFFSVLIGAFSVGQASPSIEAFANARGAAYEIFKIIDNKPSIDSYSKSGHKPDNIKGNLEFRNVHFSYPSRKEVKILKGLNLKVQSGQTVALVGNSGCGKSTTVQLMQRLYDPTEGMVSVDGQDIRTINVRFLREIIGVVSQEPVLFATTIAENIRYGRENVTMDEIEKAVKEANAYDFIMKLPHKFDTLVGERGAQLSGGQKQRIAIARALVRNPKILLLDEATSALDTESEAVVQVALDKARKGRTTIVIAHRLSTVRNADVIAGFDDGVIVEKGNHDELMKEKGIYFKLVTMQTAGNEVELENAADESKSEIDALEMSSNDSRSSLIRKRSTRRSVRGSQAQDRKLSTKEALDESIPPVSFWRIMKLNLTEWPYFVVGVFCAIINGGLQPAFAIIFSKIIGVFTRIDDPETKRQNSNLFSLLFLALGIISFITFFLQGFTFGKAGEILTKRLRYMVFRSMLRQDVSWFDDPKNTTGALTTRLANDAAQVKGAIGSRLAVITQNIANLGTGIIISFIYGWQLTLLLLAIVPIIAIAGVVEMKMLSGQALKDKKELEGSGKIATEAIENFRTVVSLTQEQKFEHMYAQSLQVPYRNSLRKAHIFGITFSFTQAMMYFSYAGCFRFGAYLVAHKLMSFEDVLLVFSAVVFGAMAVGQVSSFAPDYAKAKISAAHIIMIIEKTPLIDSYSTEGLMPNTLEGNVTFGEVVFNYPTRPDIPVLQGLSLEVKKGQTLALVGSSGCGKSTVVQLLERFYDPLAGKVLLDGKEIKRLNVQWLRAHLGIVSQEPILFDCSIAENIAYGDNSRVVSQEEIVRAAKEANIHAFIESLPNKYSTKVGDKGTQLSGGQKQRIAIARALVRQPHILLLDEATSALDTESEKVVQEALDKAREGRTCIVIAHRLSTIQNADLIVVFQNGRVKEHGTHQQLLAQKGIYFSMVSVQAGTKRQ

| SMILES | inhibitory activity on the CYP3A enzyme, testosterone 6β-hydroxylation (CYP3A enzyme) | inhibition of 6β-hydroxylation of testosterone (CYP3A4 [2]) [%] | IC50 (CYP3A4 [2]) [µM] | also measured |
| --- | --- | --- | --- | --- |
| O.Oc1cc(O)c2c(c1)O[C@H](c1ccc(O)c(O)c1)[C@@H](O)C2 [catechin] | higher than 50% | – | – | remaining activity (%RA) of CYP3A4, substrate reaction not specified (CYP3A4 [1]): higher than 50% |
| O=c1c(O)c(-c2ccc(O)c(O)c2)oc2cc(O)cc(O)c12 [quercetin] | – | […] | […] | remaining activity (%RA), midazolam 1-hydroxylation (CYP3A4 [1]; negative control = 100%): markedly inhibited; remaining activity (%RA), nifedipine oxidation (CYP3A4 [1]; negative control = 100%): markedly inhibited |
| O=c1c(O)c(-c2ccc(O)cc2)oc2cc(O)cc(O)c12 [kaempferol] | – | 100 | 8.8 | – |
| Oc1cc(O)c2c(c1)O[C@H](c1ccc(O)c(O)c1)[C@H](O)C2 [epicatechin] | 50% | – | – | P-gp inhibitory potential (in words) (P-gp [3]): slight inhibitory potential; effect on P-gp activity (in words) (P-gp [4]): did not observe any effect |
